Read-outs that look alike come from different tables or passages of the source.
Legend:
[1] = test system: 3D7-strain P. falciparum asexual parasites; assay: P. falciparum asexual growth inhibition assay (Pf GIA); assay type: cell-based, Plasmodium falciparum; settings: dose response confirmation; read-out: Pf asexual growth inhibition assays IC50
Outline: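 3D7 parasites at 0.25% parasitemia, 2% hematocrit were exposed to compounds in dose response for 72 h at 37°C under 5% CO2, 5% O2. Viability read as parasite LDH activity (nitro blue tetrazolium, A650) after freeze-thaw; inhibition scaled to chloroquine (50 μM) and DMSO controls, mean of three biological replicates.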

HepG2 cells = assay: HepG2 cytotoxicity assay; settings: for IC50: read-out: HepG2 cytotoxicity assay IC50, dose response confirmation; for Pb ODA (this manuscript) HepG2 cytoxicity: HepG2 cytotoxicity listed with the Pb ODA data set (this manuscript)
Outline: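 HepG2 cells, 2,500 per well in MEM with 10% FBS and 1% NEAA, exposed to compounds for 48 h at 37°C, 5% CO2. Viability read by fluorescence; percent inhibition relative to 50 μM doxorubicin and DMSO controls.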

[2] = test system: P. berghei ookinete development; settings: for % inhibition, Replicate A / % inhibition, Replicate B: primary screen at 1 μM
[3] = unified HepG2 value across the three screens
[4] = read-out: Pb ODA IC50, this manuscript
[5] = read-out: Pb Ookinete development assay IC50, dose response confirmation
[6] = read-out: Pb ODA (this manuscript) IC50, P. berghei ookinete development assay, this manuscript
[7] = HepG2 values of the three screens unified

Row | Compound | IC50 [1] [nM] | IC50 (HepG2 cells) [nM] | Unified cytotox (HepG2 cells; [3]) [µM] | Is compound selective in assay? Pb ODA active? ([2]; 1: YES, 0: NO) | % inhibition, Replicate A [2] [%] | % inhibition, Replicate B [2] [%] | IC50 [2, 4] [nM] | IC50 [2, 5] [nM] | Pb ODA (this manuscript) HepG2 cytoxicity (HepG2 cells) [µM] | Is compound selective in assay? Pb ODA active? [2] | IC50 [2, 6] [nM] | HepG2 cytoxicity (Pb ODA, this manuscript) (HepG2 cells) [µM] | Unified cytotox (HepG2 cells; [7]) [µM]
1 | Cc1cc(C2NC(=O)c3ccccc3N2)c(C)n1-c1ccc2c(c1)OCO2 (centres unmarked) [TCMDC-125051] | 51 | 3470 | 3.47 | 0 (0: NO) | 87.88 | 98.84 | 850 | 854 | – | – | – | – | –
2 | CC[C@H]1CN2CCc3cc(OC)c(OC)cc3[C@@H]2C[C@@H]1C[C@H]1NCCc2c1cc(OC)c(O)c2Cl [TCMDC-131802] | 156 | 4520 | – | – | 61.67 | 93.54 | – | 268 | 4.52 | 1 (key: 1: YES; 0: NO) | 270 | – | –
3 | COc1nc2c(CCN3CCC(NCc4ccc5c(n4)NC(=O)CO5)CC3)c(Cl)cnc2cc1F.Cl [TCMDC-135766] | 2740 | 42700 | – | – | 65.11 | 58.19 | – | 3720 | 42.66 | 1 (key: 1: YES; 0: NO) | 3720 | – | –
4 | CC(C)N1CCN(CCCCNc2c3ccccc3nc3ccccc23)CC1.Cl [TCMDC-137573] | 10 | 5750 | – | 0 (0: NO) | 42.86 | 78.36 | 2890 | 2890 | – | – | – | 5.75 | 5.75
5 | COc1ccc2ncc(C#N)c(CCN3C4CCC3CC(NCc3ccc5c(n3)NC(=O)CS5)C4)c2c1.Cl (centres unmarked) [TCMDC-135180] | 630 | 6460 | – | 0 (0: NO) | 66.14 | 72.52 | 3070 | 3070 | – | – | – | 6.46 | 6.46
6 | CCCN1CCN(CCCCNc2c3ccccc3nc3ccccc23)CC1.Cl [TCMDC-137576] | 238 | 5370 | – | 0 (0: NO) | 35.45 | 63.99 | 2330 | 2320 | – | – | – | 5.37 | 5.37
7 | Cc1ccc(C2(CN3CCC(NC(=O)c4ccn[nH]4)CC3)CCCCC2)cc1 [TCMDC-124839] | 138 | 43200 | – | – | 81.24 | 59.00 | – | 968 | 43.15 | 1 (key: 1: YES; 0: NO) | 970 | – | –
8 | Cc1[nH]c(C)c(-c2ccc(-c3ccc(Cl)cc3)cc2)c(=O)c1Cl [TCMDC-137416] | 378 | 57500 | – | – | 59.25 | 97.22 | – | 2430 | 57.54 | 1 (key: 1: YES; 0: NO) | 2430 | – | –
9 | COc1ccc2nc(-c3cc(-c4ccc(NC(C)=O)cc4)cnc3N)[nH]c2c1 [TCMDC-135365] | 1280 | 12000 | 12.02 | 1 (1: YES) | 88.78 | 104.70 | 440 | 442 | – | – | – | – | –
10 | Cc1c2ccncc2c(C)c2c1[nH]c1ccccc12 [TCMDC-125546] | 1190 | 15100 | 15.14 | 0 (0: NO) | 41.57 | 50.63 | 5270 | 5260 | – | – | – | – | –
11 | Br.CC1(C)NC(N)=NC(=N)N1OCCCOc1cc(Cl)ccc1Cl [TCMDC-131679] | < 0.2 | 1 | – | – | 77.33 | 60.56 | – | 3390 | 0.001 | 0 (key: 1: YES; 0: NO) | 3390 | – | –
12 | Cc1[nH]c(C)c(-c2ccc(-c3ccccc3Cl)nc2)c(=O)c1Cl [TCMDC-136303] | 248 | 100000 | – | 1 (1: YES) | 118.12 | 98.57 | 230 | 229 | – | – | – | – | 100.00
13 | CCC1=C[C@@H]2CN(C1)Cc1c([nH]c3ccccc13)[C@@](C(=O)OC)(c1cc3c(cc1OC)N(C)[C@H]1[C@@](O)(C(=O)OC)[C@H](O)[C@]4(CC)C=CCN5CC[C@]31[C@@H]54)C2.O=S(=O)(O)O [TCMDC-137769] | 213 | 41200 | 41.21 | 1 (1: YES) | 141.80 | 104.79 | 360 | 365 | – | – | – | – | –
14 | Cc1[nH]c(C)c(-c2ccc(Oc3ccccc3)cc2)c(=O)c1Br [TCMDC-137410] | 14 | 34700 | – | 1 (1: YES) | 89.72 | 108.12 | 33.8 | 34 | – | – | – | 34.67 | 34.67
15 | O=c1c2c([nH]c3cc(Cl)ccc13)CCCC2 [TCMDC-123504] | 824 | 100000 | – | – | 114.67 | 120.99 | – | 1240 | 100.00 | 1 (key: 1: YES; 0: NO) | 1240 | – | –
16 | Cc1ccc(Nc2nc(N/N=C/c3cccc(O)c3)nc(Nc3ccc([N+](=O)[O-])cc3)n2)cc1C [TCMDC-124125] | 1820 | 100000 | 100.00 | 1 (1: YES) | 68.98 | 54.76 | 3830 | 3830 | – | – | – | – | –
17 | CC(O)C(C)(CO)NCc1ccc2c3c(cccc13)-c1ccccc1-2.Cl (centres unmarked) [TCMDC-138117] | 490 | 4470 | 4.47 | 0 (0: NO) | 18.85 | 67.10 | 610 | 608 | – | – | – | – | –
18 | Cc1cc(=O)c(-c2ccc(Oc3cccc(Cl)c3)cc2)c(C)[nH]1 [TCMDC-137265] | 1850 | 3720 | – | 0 (0: NO) | 110.80 | 102.47 | 1280 | 1280 | – | – | – | 3.72 | 3.72
19 | Nc1nc(N)c2c(ccc3c2ccn3CCCC(F)(F)F)n1 [TCMDC-138622] | 105 | 370 | – | 0 (0: NO) | 33.98 | 53.93 | 6060 | 6060 | – | – | – | 0.37 | 0.37

Reference: publication PMC6753678, “Fueling Open Innovation for Malaria Transmission-Blocking Drugs: Hundreds of Molecules Targeting Early Parasite Mosquito Stages” (Frontiers in Microbiology, 2019)
